Test results reported in ChEMBL document CHEMBL3885861, “Open TG-GATES”.

Species: Rattus norvegicus
Experiment: Open TG-GATES - Regimen: Daily Repeat
Format: toxicity, organism-based, Sprague-Dawley
Parameters: regimen Daily Repeat, gender Male, age 6 weeks
Settings: in vivo, po, 300 mg/kg, route gavage, dose level Middle; for APTT / Bas / Eos / Fbg / Hb / Ht / Lym / MCHC / MCV / Mono / Neu / PT / Plat / RBC / Ret / WBC: tissue Blood; for KIDNEY_L / KIDNEY_R / KIDNEY_TOTAL: tissue Kidney; for LIVER: tissue Liver; for ALP / ALT / AST / CRE / DBIL / GLC / IP / K / LDH / Na / PL / RALB / TBIL / TC / TG / TP / gamma-GTP: tissue Plasma

C#C[C@]1(O)CC[C@H]2[C@@H]3CCC4=Cc5oncc5C[C@]4(C)[C@H]3CC[C@@]21C [DANAZOL]
TERMINAL_BW (72 h, time 3 day): 238.4 g | APTT (72 h, time 3 day): 22.7 s | Bas (72 h, time 3 day): 0% | Eos (72 h, time 3 day): 1% | Fbg (72 h, time 3 day): 355.8 mg/dL | Hb (72 h, time 3 day): 13.5 g/dL | Ht (72 h, time 3 day): 40.3% | Lym (72 h, time 3 day): 80% | MCHC (72 h, time 3 day): 33.4% | MCV (72 h, time 3 day): 62.4 fL | Mono (72 h, time 3 day): 2.4% | Neu (72 h, time 3 day): 15.8% | PT (72 h, time 3 day): 16.5 s | Plat (72 h, time 3 day): 115.8 x10_4/uL | RBC (72 h, time 3 day): 645.6 x10_4/ul | Ret (72 h, time 3 day): 6.6% | WBC (72 h, time 3 day): 87.1 x10_2/uL | KIDNEY_L (72 h, time 3 day): 1.1 g | KIDNEY_R (72 h, time 3 day): 1.1 g | KIDNEY_TOTAL (72 h, time 3 day): 2.2 g | LIVER (72 h, time 3 day): 12.4 g | ALP (72 h, time 3 day): 1638.6 IU/L | ALT (72 h, time 3 day): 45.2 IU/L | AST (72 h, time 3 day): 65.8 IU/L | CRE (72 h, time 3 day): 0.2 mg/dL | DBIL (72 h, time 3 day): 0 mg/dL | GLC (72 h, time 3 day): 180.2 mg/dL | IP (72 h, time 3 day): 7.9 mg/dL | K (72 h, time 3 day): 4.5 meq/L | LDH (72 h, time 3 day): 169.6 IU/L | Na (72 h, time 3 day): 141.6 meq/L | PL (72 h, time 3 day): 129.6 mg/dL | RALB (72 h, time 3 day): 3.1 g/dL | TBIL (72 h, time 3 day): 0.004 mg/dL | TC (72 h, time 3 day): 50.2 mg/dL | TG (72 h, time 3 day): 172.2 mg/dL | TP (72 h, time 3 day): 5.7 g/dL | gamma-GTP (72 h, time 3 day): 2 IU/L | TERMINAL_BW ([…], time 7 day): 263.9 g | TERMINAL_BW ([…], time 14 day): 303.4 g | TERMINAL_BW ([…], time 28 day): 343.4 g | APTT ([…], time 7 day): 25.7 s | Bas ([…], time 7 day): 0% | Eos ([…], time 7 day): 0.8% | Fbg ([…], time 7 day): 360 mg/dL | Hb ([…], time 7 day): 13.9 g/dL | Ht ([…], time 7 day): 41.1% | Lym ([…], time 7 day): 81.8% | MCHC ([…], time 7 day): 33.8% | MCV ([…], time 7 day): 61.8 fL | Mono ([…], time 7 day): 2% | Neu ([…], time 7 day): 14.8% | PT ([…], time 7 day): 16.2 s | Plat ([…], time 7 day): 127.5 x10_4/uL | RBC ([…], time 7 day): 666.4 x10_4/ul | Ret ([…], time 7 day): 5.3% | WBC ([…], time 7 day): 104.2 x10_2/uL | APTT ([…], time 14 day): 26.4 s | Bas ([…], time 14 day): 0% | Eos ([…], time 14 day): 0.8% | Fbg ([…], time 14 day): 334.2 mg/dL | Hb ([…], time 14 day): 14.6 g/dL | Ht ([…], time 14 day): 41.2% | Lym ([…], time 14 day): 85.2% | MCHC ([…], time 14 day): 35.4% | MCV ([…], time 14 day): 58.8 fL | Mono ([…], time 14 day): 2.4% | Neu ([…], time 14 day): 10.8% | PT ([…], time 14 day): 17.3 s | Plat ([…], time 14 day): 124.6 x10_4/uL | RBC ([…], time 14 day): 701.4 x10_4/ul | Ret ([…], time 14 day): 2.8% | WBC ([…], time 14 day): 113.8 x10_2/uL | APTT ([…], time 28 day): 26.1 s | Bas ([…], time 28 day): 0% | Eos ([…], time 28 day): 0.6% | Fbg ([…], time 28 day): 310.8 mg/dL | Hb ([…], time 28 day): 14.5 g/dL | Ht ([…], time 28 day): 42.2% | Lym ([…], time 28 day): 84.2% | MCHC ([…], time 28 day): 34.5% | MCV ([…], time 28 day): 54.1 fL | Mono ([…], time 28 day): 1.8% | Neu ([…], time 28 day): 12.4% | PT ([…], time 28 day): 17.9 s | Plat ([…], time 28 day): 108.2 x10_4/uL | RBC ([…], time 28 day): 779.4 x10_4/ul | Ret ([…], time 28 day): 2% | WBC ([…], time 28 day): 79.9 x10_2/uL | KIDNEY_L ([…], time 7 day): 1.2 g | KIDNEY_R ([…], time 7 day): 1.2 g | KIDNEY_TOTAL ([…], time 7 day): 2.4 g | KIDNEY_L ([…], time 14 day): 1.3 g | KIDNEY_R ([…], time 14 day): 1.3 g | KIDNEY_TOTAL ([…], time 14 day): 2.6 g | KIDNEY_L ([…], time 28 day): 1.4 g | KIDNEY_R ([…], time 28 day): 1.3 g | KIDNEY_TOTAL ([…], time 28 day): 2.7 g | LIVER ([…], time 7 day): 13.6 g | LIVER ([…], time 14 day): 14.9 g | LIVER ([…], time 28 day): 14.9 g | ALP ([…], time 7 day): 1469 IU/L | ALT ([…], time 7 day): 42.6 IU/L | AST ([…], time 7 day): 64 IU/L | CRE ([…], time 7 day): 0.2 mg/dL | DBIL ([…], time 7 day): 0 mg/dL | GLC ([…], time 7 day): 181.6 mg/dL | IP ([…], time 7 day): 6.5 mg/dL | K ([…], time 7 day): 4.3 meq/L | LDH ([…], time 7 day): 134.6 IU/L | Na ([…], time 7 day): 142.2 meq/L | PL ([…], time 7 day): 132.2 mg/dL | RALB ([…], time 7 day): 3.1 g/dL | TBIL ([…], time 7 day): 0.002 mg/dL | TC ([…], time 7 day): 49.4 mg/dL | TG ([…], time 7 day): 210.2 mg/dL | TP ([…], time 7 day): 5.8 g/dL | gamma-GTP ([…], time 7 day): 1.8 IU/L | ALP ([…], time 14 day): 1443.4 IU/L | ALT ([…], time 14 day): 35.6 IU/L | AST ([…], time 14 day): 58 IU/L | CRE ([…], time 14 day): 0.2 mg/dL | DBIL ([…], time 14 day): 0 mg/dL | GLC ([…], time 14 day): 170 mg/dL | IP ([…], time 14 day): 6.8 mg/dL | K ([…], time 14 day): 4.3 meq/L | LDH ([…], time 14 day): 134.8 IU/L | Na ([…], time 14 day): 141.8 meq/L | PL ([…], time 14 day): 115 mg/dL | RALB ([…], time 14 day): 3.1 g/dL | TBIL ([…], time 14 day): 0 mg/dL | TC ([…], time 14 day): 35.6 mg/dL | TG ([…], time 14 day): 240.6 mg/dL | TP ([…], time 14 day): 6 g/dL | gamma-GTP ([…], time 14 day): 2.4 IU/L | ALP ([…], time 28 day): 1201.6 IU/L | ALT ([…], time 28 day): 35.6 IU/L | AST ([…], time 28 day): 57.6 IU/L | CRE ([…], time 28 day): 0.2 mg/dL | DBIL ([…], time 28 day): 0 mg/dL | GLC ([…], time 28 day): 178 mg/dL | IP ([…], time 28 day): 5.8 mg/dL | K ([…], time 28 day): 4 meq/L | LDH ([…], time 28 day): 121.6 IU/L | Na ([…], time 28 day): 142.2 meq/L | PL ([…], time 28 day): 130.4 mg/dL | RALB ([…], time 28 day): 3.1 g/dL | TBIL ([…], time 28 day): 0.002 mg/dL | TC ([…], time 28 day): 41.4 mg/dL | TG ([…], time 28 day): 280.2 mg/dL | TP ([…], time 28 day): 6.2 g/dL | gamma-GTP ([…], time 28 day): 2.8 IU/L
